These results are taken from publication PMC11620503 (Antimicrobial Agents and Chemotherapy, 2024).

≈ marks a conversion by molar mass, not a printed value. Like-named read-outs stand apart in the source and are kept apart here.

Test [1] relates to Serine-carbapenemase-producing Enterobacterales (6). The experiment in a line: MIC and MBC testing. It is filed as cell-based. The note with it: 6 serine-carbapenemase-producing Enterobacterales; fixed BLI concentration (μg/mL) in label.
Test [2] has as its system Klebsiella pneumoniae ATCC BAA-2344 (KPC-2). Kind of test: MIC, broth microdilution. It is filed as cell-based. The note with it: K. pneumoniae ATCC BAA-2344, agent alone. In general terms: Dilution methods test growth across graded concentrations, often in twofold steps.
The test system of test [3] is P. aeruginosa CDC-110 (VIM-2). The experiment in a line: MIC, broth microdilution. It is filed as cell-based. The note with it: Pseudomonas aeruginosa, agent alone.
Test [4] concerns E. coli ATCC BAA-2469 (NDM-1). Kind of test: Lethal mouse model of systemic infection. The note with it: Escherichia coli, ATCCBAA2469, in Mus musculus, sc.
The test system of test [5] is A. baumannii CDC-303 (OXA-23, 66). The experiment in a line: Lethal mouse model of systemic infection. The note with it: Acinetobacter baumannii, in Mus musculus, sc, read-out: ED50 of MEM, extrapolated from the probit analysis.
Test [6] relates to P. aeruginosa CDC-90 (KPC-5). The experiment in a line: Lethal mouse model of systemic infection. The note with it: Pseudomonas aeruginosa, in Mus musculus, sc, read-out: ED50 of MEM (95% confidence intervals).
Test [7] concerns P. aeruginosa CDC-110 (VIM-2). Kind of test: Lethal mouse model of systemic infection. Conditions: Pseudomonas aeruginosa, in Mus musculus, sc, read-out: ED50 of MEM (95% confidence intervals).
Test [8] deals with 12 Gram-positive strains (including methicillin-sensitive staphylococci and streptococci). Kind of test: Intrinsic antibacterial activity, MIC. The note with it: KSP-1007 alone. It is filed as cell-based.
Test [9] is described as follows: Intrinsic antibacterial activity, MIC. It is filed as cell-based.
The subject of test [10] is the other seven anaerobic strains. Kind of test: Intrinsic antibacterial activity, MIC agar dilution. It counts as cell-based. How it is done:
MICs were determined by the broth microdilution method and agar dilution method (for anaerobic bacteria only) according to CLSI ([37], [38]). When investigating the effect of HSA on the MICs, CAMHB with 4% HSA (FUJIFILM Wako Pure Chemical Corporation) was used. […] The MBC was defined as the lowest drug concentration at which ≥99.9% of the original inoculum was killed.
A general note: In agar dilution, organisms are placed on agar that contains the substance at set levels.

The test system of test [11] is Clostridioides difficile ATCC 700057. Kind of test: MIC, agar dilution, reference strains of anaerobic bacteria. It is filed as cell-based. Conditions: ATCC700057.
Test [12] concerns Clostridioides difficile ATCC BAA-1803. The test is described as above. It counts as cell-based. Conditions: ATCCBAA1803.
The test system of test [13] is Clostridium perfringens ATCC 13124. The experiment in a line: microbe, parasite or virus in culture. It counts as cell-based. The note with it: ATCC13124.
The subject of test [14] is Peptostreptococcus anaerobius ATCC 27337. The experiment in a line: MIC, agar dilution, reference strains of anaerobic bacteria. It is filed as cell-based. The note with it: ATCC27337.
The test system of test [15] is Finegoldia magna ATCC 29328. The test is described as above. It counts as cell-based. The note with it: ATCC29328.
Test [16] relates to Eggerthella lenta ATCC 43055. Described as above. It is filed as cell-based. Conditions: ATCC43055.
A further test deals with Olsenella uli KUB3012. Described as above. It is filed as cell-based.
Test [17] relates to Bulleidia extructa KUB3013. Described as above. It is filed as cell-based.
The test system of test [18] is Propionibacterium acnes ATCC 11827. The description is as above. It is filed as cell-based. Conditions: Cutibacterium acnes, ATCC11827.
In test [19] the test system is Bacteroides fragilis ATCC 25285. The test is described as above. It is filed as cell-based. The note with it: ATCC25285.
In test [20] the test system is Bacteroides thetaiotaomicron KUB2984. The description is as above. It is filed as cell-based.
The subject of test [21] is Prevotella histicola KUB2989. The test is described as above. It is filed as cell-based.
The subject of test [22] is Prevotella buccae KUB2992. The description is as above. Conditions: Segatella buccae. It counts as cell-based.
The next test deals with CTX-M-14 (Escherichia coli, UniProt Q9L5C7). Kind of test: Ki app determination (Waley's method).
For another test, the target named is CTX-M-27 (Escherichia coli, UniProt Q840M4). Kind of test: Ki app determination (Waley's method).
The target in a further test is KPC-3 (Klebsiella pneumoniae, UniProt Q9F663, H272Y). Kind of test: Ki app determination (Waley's method).
The next test has as its target OXA-48 (Klebsiella pneumoniae, UniProt Q6XEC0). The experiment in a line: Ki app determination (Waley's method).
For the next test, the target named is OXA-66 (Acinetobacter baumannii, UniProt Q58XD2). Kind of test: Ki app determination (Waley's method).
In another test the target is IMP-1 (Serratia marcescens, UniProt P52699). Kind of test: Ki app determination (Waley's method).
In the next test the target is NDM-1 (Klebsiella pneumoniae, UniProt C7C422). Kind of test: Ki app determination (Waley's method).
In a further test the target is NDM-4 (Klebsiella pneumoniae, UniProt C7C422, M154L). Kind of test: Ki app determination (Waley's method).
The next test deals with NDM-5 (Klebsiella pneumoniae, UniProt C7C422, M154L/V88L). Kind of test: Ki app determination (Waley's method).
Another test addresses NDM-6 (Klebsiella pneumoniae, UniProt C7C422, A233V). The experiment in a line: Ki app determination (Waley's method).
The target of test [23] is class A carbapenemase KPCs. The experiment in a line: Ki app determination, range over enzymes. Conditions: read-out: Ki app values, range.
Test [24] has as its target class D carbapenemases, OXAs from Acinetobacter spp., and OXA-48. Kind of test: Ki app determination, range over enzymes. The note with it: read-out: Ki app, range; range over OXAs from Acinetobacter spp. and OXA-48.

The molecule `C[C@@H](O)[C@H]1C(=O)N2C(C(=O)O)=C(S[C@@H]3CN[C@H](C(=O)N(C)C)C3)[C@H](C)[C@H]12` [MEM, meropenem] registered an MIC Range in test [1] of 1 to 64 µg/mL. Further, the MIC was 16 to 32 µg/mL in test [2] (Experiment 1); 16 to 32 µg/mL (≈ 41.7 to 83.4 µM) in test [2] (Klebsiella pneumoniae, ATCCBAA2344, Experiment 2, read-out: MIC); 64 µg/mL (≈ 167 µM) in test [3]. The ED50 in [4] (read-out: ED50 of MEM (95% confidence intervals), E. coli ATCC BAA-2469, Experiment 1, single sc dose, survival day 7, dose ratio in label) was 103 mg/kg; in test [4] (read-out: ED50 of MEM (95% confidence intervals), E. coli ATCC BAA-2469, Experiment 2, single sc dose, survival day 7, dose ratio in label) it was 118 mg/kg; in test [5], 6550 mg/kg; in test [6] it was 54.8 mg/kg; in test [7], 218 mg/kg.

On to `N[C@@H](C(=O)N1CC(Oc2ccc3c(c2C(=O)O)OB(O)CC3)C1)c1c[nH]cn1` [KSP-1007, 7-({1-[(2R)-2-amino-2-(1H-imidazol-4-yl)acetyl]azetidin-3-yl}oxy)-2-hydroxy-3,4-dihydro-2H-1,2-benzoxaborinine-8-carboxylic acid], for which the “MICs, range” value in test [8] is reported as 0.25 to 8 µg/mL. The MIC was at least 64 µg/mL in test [9]; above 256 µg/mL in test [10]; above 256 µg/mL in test [11]; above 256 µg/mL in test [12]; 2 µg/mL (≈ 5.18 µM) in test [13]; above 256 µg/mL in test [14]. For the same molecule, the MIC is 128 µg/mL (≈ 331 µM) in test [15]; above 256 µg/mL in [16]; 64 µg/mL (≈ 166 µM) against Olsenella uli KUB3012; 32 µg/mL (≈ 82.9 µM) in test [17]; 32 µg/mL (≈ 82.9 µM) in test [18]; 8 µg/mL (≈ 20.7 µM) in test [19]. Further, the MIC was 32 µg/mL (≈ 82.9 µM) in test [20], 8 µg/mL (≈ 20.7 µM) in [21] and 8 µg/mL (≈ 20.7 µM) in [22]. The Ki at CTX-M-14 is 0.153 ± 0.0235 nM; at CTX-M-27 it was 0.159 ± 0.0228 nM; at KPC-3, 2.19 ± 0.687 nM; on OXA-48, 0.861 ± 0.0767 nM; on OXA-66 it was 5.78 ± 0.654 nM; on IMP-1 it was 512 ± 119 nM. Also, the Ki was 126 ± 58.1 nM at NDM-1; 153 ± 45.2 nM on NDM-4; 31.6 ± 12.3 nM at NDM-5; 1050 nM on NDM-6; 0.836 to 2.19 nM in test [23]; 0.621 to 5.78 nM in test [24].
